Measured values reported in patent publication US8124788B2, “Spirocyclic cyclohexane compounds with analgesic activity” (Gruenenthal GmbH, priority 2006, dated 2012).
Where a name gives a salt, the structure may show the parent alone.

What was measured:
[1] = biological target: T1, Serotonin reuptake (Rattus norvegicus, UniProt P31652); experiment: Inhibition of serotonin (5HT) reuptake in rat brain synaptosomes; type: biochemical
T1 construct: synaptosomes are freshly isolated from areas of the rat brain; from tissue
T1 sequence (P31652 whole entry): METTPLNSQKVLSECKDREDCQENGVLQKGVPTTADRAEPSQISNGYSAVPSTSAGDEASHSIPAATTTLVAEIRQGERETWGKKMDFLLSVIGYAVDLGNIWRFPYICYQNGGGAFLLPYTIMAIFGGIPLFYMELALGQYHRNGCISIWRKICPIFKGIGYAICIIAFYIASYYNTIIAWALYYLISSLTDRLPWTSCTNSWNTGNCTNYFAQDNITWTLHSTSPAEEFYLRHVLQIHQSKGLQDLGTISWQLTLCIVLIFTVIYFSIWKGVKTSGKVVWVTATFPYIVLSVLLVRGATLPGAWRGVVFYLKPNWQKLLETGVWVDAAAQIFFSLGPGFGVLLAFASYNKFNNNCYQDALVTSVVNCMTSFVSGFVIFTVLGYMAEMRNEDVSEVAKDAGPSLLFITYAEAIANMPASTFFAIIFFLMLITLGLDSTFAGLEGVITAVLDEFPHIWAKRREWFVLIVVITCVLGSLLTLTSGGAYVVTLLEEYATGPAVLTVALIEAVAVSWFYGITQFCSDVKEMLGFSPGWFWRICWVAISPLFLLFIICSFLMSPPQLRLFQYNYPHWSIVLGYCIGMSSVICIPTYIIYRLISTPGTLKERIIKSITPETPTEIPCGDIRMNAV
Method: In order to be able to carry out these in vitro studies, synaptosomes are freshly isolated from areas of the rat brain. In each case a so-called “P2” fraction prepared in accordance with the instruction of Gray and Whittaker (E. G. Gray and V. P. Whittaker (1962) J. Anat. 76, 79-88) is prepared. For the NA uptake, these vesicular particles are isolated from the hypothalamus of male rat brains.
A detailed description of the method can be found in the literature (M. Ch. Frink, H.-H. Hennies, W. Englberger, M. Haurand and B. Wilffert (1996) Arzneim.-Forsch./Drug Res. 46 (III), 11, 1029-1036).

[2] = biological target: T2, human μ opiate receptor (Homo sapiens, UniProt P35372); experiment: Affinity for the human μ opiate receptor ([3H]-naloxone displacement, CHO-K1 membrane preparation, SPA); type: binding; details: for μ opioid receptor [1 μM], % inhibition / inhibition at 1 µM: 1 μM test substance, displacement of [3H]-naloxone; for inhibition at 1 µM: read-out: μ opioid receptor [1 μM], % inhibition; for Ki: Cheng-Prusoff conversion from IC50, read-out: μ opioid receptor, Ki; for μ opioid receptor [1 μmol], % inhibition: compounds prepared via automated synthesis, single measurements at a test concentration of 1 μM
T2 construct: purchased PerkinElmer Life Sciences, Zaventem, Belgium RB-HOM; host or cells: CHO-K1 cells (recombinant expression)
T2 sequence (P35372 whole entry): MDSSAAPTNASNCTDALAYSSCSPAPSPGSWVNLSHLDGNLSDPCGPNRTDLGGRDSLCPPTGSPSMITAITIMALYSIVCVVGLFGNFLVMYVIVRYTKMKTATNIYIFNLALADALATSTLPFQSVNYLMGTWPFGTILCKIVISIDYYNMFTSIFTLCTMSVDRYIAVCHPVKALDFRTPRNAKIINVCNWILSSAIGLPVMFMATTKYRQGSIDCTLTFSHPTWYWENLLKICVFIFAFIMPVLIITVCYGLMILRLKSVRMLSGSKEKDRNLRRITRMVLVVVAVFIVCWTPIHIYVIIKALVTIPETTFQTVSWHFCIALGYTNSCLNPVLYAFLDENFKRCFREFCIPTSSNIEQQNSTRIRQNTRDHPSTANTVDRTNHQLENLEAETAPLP
Method in brief: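 CHO-K1 membranes expressing human μ receptor (15-40 μg protein/250 μl) were incubated 90 min at room temperature with 1 nmol/l [³H]-naloxone and WGA-SPA beads in 50 mmol/l Tris-HCl with 0.06% BSA; 100 μmol/l naloxone defined nonspecific binding. Percent displacement measured at 1 μmol/l; IC50 converted to Ki via Cheng-Prusoff.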

SMILES: CC1Cc2c([nH]c3ccc(F)cc23)C2(CCC(C(c3ccc(F)cc3)N(C)C)CC2)O1 (stereo not shown) [Compound 51, 6-Fluoro-3-methyl-1,1-[3-(dimethylamino-(4-fluorophenyl) -methyl)-pentamethylene]-1,3,4,9-tetrahydropyrano[3,4-b]indole]
- Serotonin reuptake, % inhibition [10 μM] [1]: 39%
- μ opioid receptor [1 μM], % inhibition [2]: 46%

SMILES: CC1Cc2c([nH]c3ccc(F)cc23)C2(CCC(C(c3cccc(F)c3)N(C)C)CC2)O1 (stereo not shown) [Compound 52, 6-Fluoro-3-methyl-1,1-[3-(dimethylamino-(3-fluorophenyl) -methyl)-pentamethylene]-1,3,4,9-tetrahydropyrano[3,4-b]indole]
- Serotonin reuptake, % inhibition [10 μM] [1]: 68%
- μ opioid receptor [1 μM], % inhibition [2]: 53%

SMILES: CN(C)C(c1ccc(Cl)cc1)C1CCC2(CC1)NCCc1c2[nH]c2ccccc12 (stereo not shown) [Compound 22, 1,1-[3-(4-Chlorophenyl-(dimethylamino)-methyl)-pentamethylene]-3,4-dihydro-1H-2,9-diazafluorene]
- Serotonin reuptake, % inhibition [10 μM] [1]: 76%
- μ opioid receptor [1 μM], % inhibition [2]: 33%

SMILES: Cc1ccc2[nH]c3c(c2c1)CC(C)OC31CCC(C(c2ccccc2)N(C)C)CC1 (stereo not shown) [Compound 42, 3,6-Dimethyl-1,1-[3-(dimethylamino-(phenyl)-methyl)-pentamethylene]-1,3,4,9-tetrahydropyrano[3,4-b]indole Citrate]
- inhibition at 10 µM [1]: 64%
- inhibition at 1 µM [2]: 101%
- Ki [2]: 29 nM

SMILES: CC1Cc2c([nH]c3ccc(F)cc23)C2(CCC(C(CCc3ccccc3)N(C)C)CC2)O1 (stereo not shown) [Compound 54, 6-Fluoro-3-methyl-1,1-[3-(dimethylamino-(phenylethyl)-methyl) -pentamethylene]-1,3,4,9-tetrahydropyrano[3,4-b]indole]
- Serotonin reuptake, % inhibition [10 μM] [1]: 55%
- μ opioid receptor [1 μM], % inhibition [2]: 21%

SMILES: Cc1ccc2[nH]c3c(c2c1)CC(C)OC31CCC(C(c2ccc(F)cc2)N(C)C)CC1 (stereo not shown) [Compound 40, 3,6-Dimethyl-1,1-[3-(dimethylamino-(4-fluorophenyl)-methyl) -pentamethylene]-1,3,4,9-tetrahydropyrano[3,4-b]indole]
- Serotonin reuptake, % inhibition [10 μM] [1]: 47%
- μ opioid receptor [1 μM], % inhibition [2]: 68%

SMILES: CN(C)C(c1ccccc1)C1CCC2(CC1)OCCc1c2[nH]c2ccc(F)cc12 (stereo not shown) [Compound 37, 6-Fluoro-1,1-[3-(dimethylamino-(phenyl)-methyl)-pentamethylene]-1,3,4,9-tetrahydro-pyrano[3,4-b]indole]
- inhibition at 10 µM [1]: 68%
- inhibition at 1 µM [2]: 74%
- Ki [2]: 37 nM

SMILES: CN(C)C(c1ccc(F)cc1)C1CCC2(CC1)OCCc1c2[nH]c2ccccc12 (stereo not shown) [Compound 25, 1,1-[3-(Dimethylamino-(4-fluorophenyl)-methyl)-pentamethylene]-1,3,4,9-tetrahydro-pyrano[3,4-b]indole]
- inhibition at 10 µM [1]: 68%
- inhibition at 1 µM [2]: 86%
- Ki [2]: 350 nM

SMILES: CN(C)C(c1cccc(F)c1)C1CCC2(CC1)c1[nH]c3ccccc3c1CCN2C(=O)COc1ccc(Cl)cc1 (stereo not shown) [Compound 70, 2-[(4-chlorophenoxy)acetyl]-{1,1-[3-(dimethylamino-(3-fluorophenyl)methyl)-pentamethylene]-3,4-dihydro-1H-2,9-diazafluorene}]
- μ opioid receptor [1 μmol], % inhibition [2]: 31%

SMILES: CN(C)C(c1ccccc1)C1CCC2(CC1)c1[nH]c3ccccc3c1CCN2C(=O)Cc1ccc(F)cc1 (stereo not shown) [Compound 104, 2-[(4-fluorophenyl)acetyl]-{1,1-[3-(dimethylamino-phenylmethyl)-pentamethylene]-3,4-dihydro-1H-2,9-diazafluorene}]
- μ opioid receptor [1 μmol], % inhibition [2]: 39%

SMILES: CN(C)C(c1cccc(F)c1)C1CCC2(CC1)c1[nH]c3ccccc3c1CCN2C(=O)CC(C)(C)C (stereo not shown) [Compound 66, 1-{1,1-[3-(dimethylamino-(3-fluorophenyl)methyl) -pentamethylene]-3,4-dihydro-1H-2,9-diazafluoren-2-yl}-3,3-dimethylbutan-1-one]
- μ opioid receptor [1 μmol], % inhibition [2]: 26%
